Laboratory results: patent US11938208B2, “Antimicrobial mixture” (SYMRISE AG, priority 2019, dated 2024)

Tests used:
E.coli (ATCC #8739) = assay: Preservative efficacy test (challenge test) in an anionic emulsion of pH 5.8; format: cell-based; details: for LR (log reduction), day 2 / LR (log reduction), day 7 / LR (log reduction), day 14 / LR (log reduction), day 21 / LR (log reduction), day 28: log 10 reduction vs initial inoculum; for surviving microorganisms (total aerobic plate count), day 2: day 2 after inoculation; for surviving microorganisms (total aerobic plate count), day 2 / surviving microorganisms (total aerobic plate count), day 7 / surviving microorganisms (total aerobic plate count), day 14 / surviving microorganisms (total aerobic plate count), day 21 / surviving microorganisms (total aerobic plate count), day 28: storage 22.5±2.5° C., TNTC = too numerous to count; for surviving microorganisms (total aerobic plate count), day 7: day 7 after inoculation; for surviving microorganisms (total aerobic plate count), day 14: day 14 after inoculation; for surviving microorganisms (total aerobic plate count), day 21: day 21 after inoculation; for surviving microorganisms (total aerobic plate count), day 28: day 28 after inoculation
Description: This test is a reference method that is used to evaluate the preservative efficacy of a test formulation (in the present case an anionic emulsion of pH 5.8 comprising various fatty esters and fatty alcohols as oil bodies and glyceryl stearate citrate as the emulsifier. The formula was inoculated with known populations of microorganisms (0.2 ml of calibrated inoculums into 20 g of the test formulation) and the number of surviving microorganisms was calculated at defined intervals during a 28-day period. The inoculated test products were stored at 22.5±2.5° C. for the 28-day duration. The surviving microorganisms were enumerated via the total aerobic plate count method. For each time point, the log 10 reductions were calculated and were compared to the passing criteria.

mold = details: moist alfalfa hay; cited from earlier work
[1] = administered intraperitoneally; cited from earlier work
[2] = constituents of Tagetes mendocina; cited from earlier work

Row | Compound | LR (log reduction), day 2 (E.coli (ATCC #8739)) | surviving microorganisms (total aerobic plate count), day 2 (E.coli (ATCC #8739)) | LR (log reduction), day 7 (E.coli (ATCC #8739)) | surviving microorganisms (total aerobic plate count), day 7 (E.coli (ATCC #8739)) | LR (log reduction), day 14 (E.coli (ATCC #8739)) | surviving microorganisms (total aerobic plate count), day 14 (E.coli (ATCC #8739)) | LR (log reduction), day 21 (E.coli (ATCC #8739)) | surviving microorganisms (total aerobic plate count), day 21 (E.coli (ATCC #8739)) | LR (log reduction), day 28 (E.coli (ATCC #8739)) | surviving microorganisms (total aerobic plate count), day 28 (E.coli (ATCC #8739)) | prevention of mold growth (mold) | LR (log reduction), day 14 (E.coli (ATCC #8739); listed as 0.35% SymSave H) | LR (log reduction), day 21 (E.coli (ATCC #8739); listed as 0.35% SymSave H) | surviving microorganisms (total aerobic plate count), day 21 (E.coli (ATCC #8739); listed as 0.35% SymSave H) | LR (log reduction), day 28 (E.coli (ATCC #8739); listed as 0.35% SymSave H) | surviving microorganisms (total aerobic plate count), day 28 (E.coli (ATCC #8739); listed as 0.35% SymSave H) | reduction of subcutaneous inflammation [1] | antioxidant activity [2]
1 | CC(C)=CCC[C@](C)(O)[C@@H]1CC=C(C)CC1 [0.6% D100, Bisabolol] | LR 0 | TNTC | LR 0 | TNTC | LR 0 | TNTC | LR 0 | TNTC | LR 0 | TNTC | – | – | – | – | – | – | – | –
2 | CC(=O)c1ccc(O)cc1 [0.25% SymSave H, 4-hydroxyacetophenone] | LR 0 | TNTC | LR 0 | TNTC | LR 0 | TNTC | LR 3.94 | 6.4 × 10^2 | LR 5.35 | 2.5 × 10^1 | not prevent mold growth | LR 2.49 | LR 6 | <10 | LR 6 | <10 | reducing subcuteaneous inflammation | one of the active constituents
